Test results: patent US6429204B1, “Method of inhibiting cancer growth” (University of Miami, priority 1997, dated 2002)

Columns and labels:
[1] = tested on: MMP-2 (gelatinase A) expressed by COLO 205 cells; experiment: MMP protein expression by Western blot of conditioned medium, COLO 205 cells; format: cell-based, human; settings: 24 hr, serum-free medium
Method: Two human cancer-derived cell lines were obtained from the American Type Culture Collection (ATCC) in Rockville, Md. The cell lines included COLO 205, a human colon cancer-derived cell line that expresses MMP-2 or gelatinase A, and E-10, a human breast cancer-derived cell line that expresses MMP-9 or gelatinase B.
Cells of each cell line were cultured in 75 cm^2 T-flasks in RPMI-1640 (Gibco) with 10% heat-inactivated fetal bovine serum (FBS) containing 100 units/mL penicillin and 100 μg/mL streptomycin. The cells were fed every two days, and passaged every week. The cells were grown to 80-90% confluence, and then the FBS-containing medium was replaced with a serum-free medium (SFM). CMT-3 (CollaGenex Pharmaceuticals, Inc., Newtown, Pa.) was added in several concentrations to the cells in SFM. Conditioned medium was collected after 24 hr, centrifuged to remove cell debris, and then assayed for MMP protein expression by Western blot using a conventional technique, and scanning the blots with a laser densitometer.

[2] = target: T1, Gelatinase B (Homo sapiens, UniProt P14780); experiment: Zymography with densitometry of C8161 conditioned medium, gelatinase B; format: cell-based; settings: 50 μg/mL, 24 hr
T1 construct: endogenous in cells; host or cells: C8161
Method: Six hundred thousand (6×10^5) C8161 cells were seeded per well in a 12-well dish coated with a laminin/collagen IV/gelatin matrix in DMEM plus Mito+ and 0.1% gentamicin sulfate. After approximately 1 hr incubation to allow the cells to attach, 50 μg/mL of either doxycycline or one of the other CMTs was added per well and the dish then placed in a 37° C. humidified 5% CO2 incubator. After 24 hr, the supernatants were removed and centrifuged to remove any cells or debris. One volume of Laemmli sample buffer minus reductant was added to two volumes of the medium, and this sample electrophoresed without prior heating or boiling on a 10% SDS-PAGE containing 0.1% gelatin (samples normalized based on the same number of cells per volume of medium per time of incubation). After electrophoresis, the gels were washed with gentle shaking at room temperature for 30 min in 50 mM Tris-HCl (pH 7.5) plus 2.5% TRITON® X100 plus 50 μg/mL of the corresponding CMT used in the original treatment. The gel was then placed in incubation buffer (50 mM Tris-Cl/10 mM CaCl2/150 mM NaCl/0.05% NaN3) also containing 50 μg/mL of the corresponding CMT, and incubated at 37° C. for 20-24 hr. The gels were stained with Coomassie BBR-250, then destained with 10% methanol/10% acetic acid in water until the wash remained clear. A photographic negative of the gel was digitized using a video camera and Snappy Video Snapshot system (Play Inc., Rancho Cordova, Calif.). An integrated density was determined for each of the cleared zones of proteolysis using the software ImagePC8α (freely available from the National Institutes of Health), and the corresponding changes in gelatinolytic activities reported compared to the control samples normalized to a value of 1.0.

[3] = tested on: C8161 cells; experiment: In vivo metastasis assay, C8161 cells i.v. in SCID mice; settings: for Number of Lung Metastases/Mouse: Average ± SEM, control 231 ± 49
Method: Immunosuppressed mice (athymic nude/nude SCID females from Harlan Sprague Dawley) were housed in autoclaved cages with microisolator tops, and all manipulations of the animals were done in a laminar flow hood after wiping down both the hood, gloves and cages with ABQ sterilant. The mice were fed sterile Pico Lab Chow (Purina) and autoclaved St. Louis tap water. […] The compounds and control (sterile water plus 2% carboxymethyl cellulose) were kept stored at −80° C. wrapped in aluminum foil to prevent any light induced changes, and each day's supply was thawed just prior to use. Four compounds were tested for their effects on the metastatic potential of C8161 cells injected intravenously via the tail vein: […] The concentration of the compounds in the vials used to give the 100 mg/kg doses were 2.5 times that in the 40 mg/kg dose so that approximately the same volume was used in both cases, approximately 0.5 mL/animal. The experiments started with nine animals per group at day −4. On day zero, 2×10^5 C8161 cells in cold Hank's Balanced Salt Solution (HBSS) were injected intravenously via tail vein inoculation. The experiment was continued for an additional 24 days, at which time the animals were sacrificed and their lungs removed and fixed in a solution of Bouins/formaldehyde (5 parts:1 part). Tumors were quantitated on the entire surface of the lungs by rotating the lungs and counting the tumors on each lobe using a 6× magnifying glass. Statistical analysis was performed using the statistical package of Microsoft's Excel spreadsheet software.

[4] = tested on: normal prostate stromal cells; experiment: Alamar Blue viability assay, normal prostate stromal cells; format: cell-based, human
From the text: (§1) Several cancer cell lines and normal cells were examined in vitro to determine whether tetracycline compounds produce cytotoxic (cell killing) effects. A conventional assay for viability of cultured cells based on redox activity in the cells was employed (Pagé et al. 1993). The assay uses a redox dye Alamar Blue, which is a fluorogenic indicator dye that is converted to a fluorescent red product only when cells are carrying out electron transport activity, a widely accepted criterion of viability.
Cultured cells from three prostate tumor cell lines, LNCAP, DU-145, and PC-3, and normal prostate stromal cells obtained by biopsy of a normal person, were allowed to grow to confluence in multiwell microplates to minimize differences in proliferative activity among the cell types at the time of exposure to the test compound. […] At the start of the experiment, and again at 1, 2, and 3 days, selected wells were incubated with the indicator dye for 3 hr, and the fluorescence was measured on a Cytofluor 2300 fluorescent microplate reader.

[5] = tested on: DU-145 tumor cells; experiment: Alamar Blue viability assay, DU-145; format: cell-based, human
From the text: as §1
Cultured cells from three prostate tumor cell lines, LNCAP, DU-145, and PC-3, and normal prostate stromal cells obtained by biopsy of a normal person, were allowed to grow to confluence in multiwell microplates to minimize differences in proliferative activity among the cell types at the time of exposure to the test compound. CMT-3 was added to the wells at concentrations of 10 μM and 20 μM (50 μM also in the case of DU-145). At the start of the experiment, and again at 1, 2, and 3 days, selected wells were incubated with the indicator dye for 3 hr, and the fluorescence was measured on a Cytofluor 2300 fluorescent microplate reader.

T1 sequence (P14780 94-707): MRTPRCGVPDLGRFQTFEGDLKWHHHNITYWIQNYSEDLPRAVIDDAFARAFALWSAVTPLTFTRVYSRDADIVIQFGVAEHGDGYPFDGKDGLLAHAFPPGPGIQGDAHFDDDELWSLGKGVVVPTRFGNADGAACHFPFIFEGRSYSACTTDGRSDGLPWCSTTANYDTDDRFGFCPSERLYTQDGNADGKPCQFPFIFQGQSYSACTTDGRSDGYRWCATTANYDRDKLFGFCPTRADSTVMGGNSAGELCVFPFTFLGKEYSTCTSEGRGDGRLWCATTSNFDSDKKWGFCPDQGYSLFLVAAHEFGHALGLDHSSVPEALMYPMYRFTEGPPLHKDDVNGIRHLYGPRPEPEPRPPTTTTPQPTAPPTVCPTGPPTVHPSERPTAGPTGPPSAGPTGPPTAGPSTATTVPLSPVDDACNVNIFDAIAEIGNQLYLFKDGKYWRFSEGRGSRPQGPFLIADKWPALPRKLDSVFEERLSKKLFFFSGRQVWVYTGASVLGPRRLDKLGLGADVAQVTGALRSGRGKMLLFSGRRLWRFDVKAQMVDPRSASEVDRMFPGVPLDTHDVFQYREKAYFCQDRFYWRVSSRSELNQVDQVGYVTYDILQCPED

## NC(=O)C1=C(O)CC2CC3Cc4cccc(O)c4C(=O)C3=C(O)C2(O)C1=O (centres unmarked) [CMT-3, 6-demethyl-6-deoxy-4-de(dimethylamino)tetracycline]
[1]; COLO 205, MMP-2, 10 μM
  Percent Inhibition of MMP Protein Expression: 13.3%
[1]; COLO 205, MMP-2, 20 μM
  Percent Inhibition of MMP Protein Expression: 66.9%
[2]
  Gelatinase B, integrated density normalized to control 1.00: 0.03
[3]; 40 mg/kg daily intragastric
  Number of Lung Metastases/Mouse: 111 ± 105
[3]; 40 mg/kg daily, p<0.05
  effect on number of lung metastases (significance): significantly reduced the number of lung metastases
[3]; 100 mg/kg
  effect on number of lung metastases (significance): did not significantly reduce the number of lung metastases
[3]; 100 mg/kg daily intragastric
  Number of Lung Metastases/Mouse: 176 ± 82
[4]; 10 μM and 20 μM, three-day period
  change in fluorescence (viability): virtually no change in fluorescence
[4]; 50 µM
  cytotoxicity: no comparable cytotoxicity
[5]; 20 μM
  cytotoxicity: some cytotoxicity appearing after 72 hr
[5]; 50 μM, over 72 hr
  cytotoxicity: significant cytoxicity
